Results on three molecules are retold here after patent publication US20220118057A1, “ALBUMIN NANOPARTICLES, THE MAKING METHOD, AND USES THEREOF” (NOVAGENESIS THERAPEUTIX (HK) LIMITED, priority 2019, published 2022).

The nature of series [1]: Solubility and apparent drug concentration. The format is physicochemical.
Series [2] deals with MIA PaCa-2 control. Briefly: In vitro cytotoxicity, MTS assay. The format is cell-based, human. The following applies: PLE 1 U/mL; slightly higher than β-lap. The source says: KRAS mutant cells MIA PaCa-2 (KRAS^G12C) and KRAS wild-type (KRAS^WT) BxPC-3 were selected for experiments. The expression levels of mutant KRAS in MIA PaCa-2 and BxPC-3 cells were manipulated. According to the supplier's protocol, MIA PaCa-2 cells with low expression level of KRAS were realized by lentiviral-mediated construction and transfection of pCDH-KRas-shRNA; control MIA PaCa-2 cells were realized by lentiviral-mediated transfection of pCDH vector; BxPC-3 cells with high expression level of KRAS were realized by lentiviral-mediated construction and transfection of pCDH-KRas-G12V, and control BxPC-3 cells were realized by lentiviral-mediated transfection of pCDH vector. All plasmids were purchased from […] Addgene (USA). The plasmid was transfected into the cells using transfection reagents (Promega, USA). 1 μg/mL puromycin was added to the culture medium for 48 hours to select stable transfected cell lines. Cells were represented as MIA PaCa-2 control, MIA PaCa-2 KRAS KD, BxPC-3 control and BxPC-3 KRAS^G12V.
Briefly, four pancreatic cancer cell lines were firstly inoculated into a 96-well culture plate (4000 cells/well), each well containing 0.1 mL of cell culture medium. […] The mean value of 6 wells per treatment was calculated and the treatment/control (T/C) value was calculated as a percentage of cell survival rate. […]
(Tetrazolium assays rely on reduction of a dye to a coloured formazan, in cell work by metabolically active cells.)

In series [3] the test system is porcine liver esterase (PLE). Briefly: Conversion of dC3 to β-lap at different BSA concentrations. The format is in vitro ADME. The protocol: In order to study the effect of BSA on the conversion of dC3 to β-lap catalyzed by an esterase, dC3 was dissolved in DMSO (final DMSO concentration <0.5%), and then added dropwise to a solution of 1 M sodium salicylate, 1 U/mL porcine liver esterase (PLE) and different concentrations of BSA. The solution was shaken in a water bath at 60 rpm at 37° C. At predetermined time points (5, 10, 15, 30, 45, 60, 90, and 120 minutes), each 0.5 mL of release medium were taken out and replaced with an equal volume of fresh medium. The removed release medium was mixed with 0.5 mL of acetonitrile, and centrifuged for 10 minutes at 10,000 rpm to remove denatured proteins. The concentration of β-lap was analyzed by H PLC.
In order to study whether the effect of BSA on dC3-β-lap conversion catalyzed by an esterase will change in the presence of the polymer, the above-mentioned experiments were also conducted with the amount of PEG5K-β-PLA5K proportional to micelle preparation. Other conditions remained unchanged.

Series [4] in a line: Pharmacokinetics of dC3 and β-lap after intravenous injection. The format is in vivo, Sprague Dawley rats. The conditions noted are these: Sprague Dawley, rat, plasma, 50 mg/kg (β-lap equivalent dose), β-lap once converted from dC3, read-out: pharmacokinetic half-life. On the procedure: The comparison of pharmacokinetics of different preparations in Sprague Dawley rats (n=3 per group) was performed. […] The blood samples were centrifuged at 4° C. and 1000 rpm for 3 minutes. The plasma concentrations of β-lap and dC3 were analyzed by LC-MS/MS (AB Sciex QTRAP 5500, USA).

The test system of series [5] is SW1990 (KRAS^G12D). Briefly: In vitro cytotoxicity, MTS assay. The format is cell-based. On the procedure:
(§1) Briefly, four pancreatic cancer cell lines were firstly inoculated into a 96-well culture plate (4000 cells/well), each well containing 0.1 mL of cell culture medium. […] PLE (1 U/mL) was added concurrently with the dC3 preparation. The cells were further incubated for 12 hours, then the culture medium containing drugs was removed and new culture medium without drug was added. Relative survival curves of the four pancreatic cancer cell lines were obtained using the MTS assay (Promega, USA). The mean value of 6 wells per treatment was calculated and the treatment/control (T/C) value was calculated as a percentage of cell survival rate. All calculations were performed by GraphPad Prism 7 software (GraphPad Software, USA).
(§2) The relative survival profiles of pancreatic cancer cells SW1990 (KRAS^G12D) and SW1990/GEM (KRAS^G12D) were also measured using the same method. SW1990/GEM was cultured in a culture medium with 50 μM gemcitabine to maintain drug resistance.

Series [6] concerns SW1990/GEM (KRAS^G12D). Briefly: In vitro cytotoxicity, MTS assay. It is filed as cell-based. The protocol: as §1, §2
Series [7] relates to BxPC-3 control. Briefly: BSA macropinocytosis (6-TAMRA-BSA uptake), flow cytometry and confocal microscopy. It is filed as cell-based, human. The following applies: 75 μM EIPA pretreatment 30 minutes. The protocol: (§3) 4 pancreatic cancer cell lines, MIA PaCa-2 control, MIA PaCa-2 KRAS KD, BxPC-3 control and BxPC-3 KRAS^G12V (10^5 cells per well, 1 mL) were inoculated in a 12-well microplate (Corning, N.Y., USA) and incubated at 37° C. and 5% CO2. When the cell density reached approximately 65%, the cell culture medium was replaced with a serum-free culture medium. After 12 hours, the culture medium was removed again and replaced with DMEM containing 1 mg/mL 6-TAMRA-BSA (500 μL/well). After incubated for another 4 hours, the cells were washed, digested and suspended in PBS (400 μL) and subjected to fluorescence analysis on a flow cytometer (BD, FACS Calibur, USA) using a 544 nm laser excitation and a 575 nm emission filter. Based on forward scattering and side scattering analysis, viable cells (10,000 cells/sample) were counted to detect the fluorescence intensity of the cells. For the EIPA (a known macropinocytosis inhibitor) inhibition experiment, cells were incubated with serum-free culture medium for 12 hours, pretreated with 75 μM of EIPA for 30 minutes, then replaced with fresh DMEM containing 1 mg/ml 6-TAMRA-BSA was added (500 μL/well).
(§4) Cells were cultured and treated as described above and grown on coverslips. After cell nuclei were stained with DAPI, the cells grown on the coverslips were observed under a multiphoton confocal Ti-E A1RMP inverted microscope (Nikon, Japan).
On the technique in general: Flow cytometry measures light scatter and fluorescence of single cells or particles in a stream.

In series [8] the test system is MIA PaCa-2 KRAS KD. The series is described as above. The following applies: 75 μM EIPA pretreatment 30 minutes. The format is cell-based, human. The protocol: as §3, §4
The subject of series [9] is MIA PaCa-2 control. Described as above. The format is cell-based, human. The following applies: 75 μM EIPA pretreatment 30 minutes. On the procedure: as §3, §4
Series [10] has as its system BxPC-3 KRAS^G12V. The series is described as above. The format is cell-based, human. The following applies: 75 μM EIPA pretreatment 30 minutes. On the procedure:
as §3, §4

Regarding `CCC(=O)Oc1c2c(c3ccccc3c1OC(=O)CC)OC(C)(C)CC2` [dC3], in series [1], the solubility (as a rule, the concentration that dissolves in the medium under given conditions) was < 0.1 µg/mL. Also, the “IC50 values, compared among dC3 treatments” value in series [2] was “comparable”. Also, the dC3-β-lap conversion ratio entry in series [3] (BSA introduced at a low BSA-dC3 ratio, PLE) is listed as “significantly reduced”. The dC3-β-lap conversion entry in [3] (BSA plus small amount of PEG-b-PLA proportional to micelle preparation) is listed as “accelerated”.
`CC1(C)CCC2=C(O1)c1ccccc1C(=O)C2=O` [β-lap, β-lapachone]: in [4], the half-life (in general, the time needed for the level to fall by half in the phase considered) is ~24 min. Also, the inhibition of cells result in series [5] and in series [6] was “effectively inhibit” in each case.
On to `CCN(c1nc(N)c(C(=O)N=C(N)N)nc1Cl)C(C)C` [EIPA, 5-[N-ethyl-N-isopropyl] amiloride], for which the “effect on BSA uptake” value in series [7] and in series [8] was “almost had no effect” in each case. Further, the “effect on 6-TAMRA-BSA uptake (macropinocytosis)” value in series [9] and in series [10] was “can be inhibited” each time.
